{"source": "patent US10112978B2", "about": "“Peptide and use thereof” (OSAKA UNIVERSITY, priority 2014, dated 2018)", "test_system": "PMA-differentiated THP-1 cells", "test": "Cytokine and chemokine production in PMA-differentiated THP-1 cells (ELISA)", "format": "cell-based, human", "procedure": "THP-1 cells were suspended at 5×10^5 cells/mL in RPMI1640 medium containing 50 ng/mL PMA (phorbol 12-myristate 13-acetate) and 10% FBS, and seeded at 5×10^5 cells/well on a 24-well plate. The cells were cultured in a CO2 incubator for 2 days for differentiation into macrophages. After the 2-day culture, the medium was removed, an OSK-1 solution in RPMI1640 medium containing 10% FBS was added to the wells, and overnight culture was performed. Sixteen hours after the addition, the culture supernatant was harvested, and the cytokine concentrations in the supernatant were measured by ELISA.\nThe experiment in this example was performed in the same manner as in Example 3, and the IL-1β, IL-18, TNFα, IL-6, RANTES, MIP-1α and MIP-1β concentrations in the culture supernatant were measured."}
{"sequence": "ELKLIFLHRLKRLRKRLKRK (Ac-ELKLIFLHRLKRLRKRLKRK-NH2) [OSK-1]", "values": [{"measurement": "production of the chemokines and cytokines (IL-1β, IL-18, TNFα, IL-6, RANTES, MIP-1α and MIP-1β)", "setting": "Example 11, ELISA", "value": "induced the production of the chemokines and cytokines in the PMA-differentiated THP-1 cells in an OSK-1 concentration dependent manner"}, {"measurement": "production of the cytokines (IL-1β, IL-18, TNFα and IL-6 concentrations in the culture supernatant)", "setting": "OSK-1 at 30 μg/mL, 16 hours, ELISA", "value": "strongly induced the production of the cytokines"}]}
